According to ChEMBL document CHEMBL1201862, “PubChem BioAssay data set” (2004):
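These data come from cells grown in 96-well plates and exposed to compound for 48 hours at five concentrations. The concentration for 50% growth inhibition is given as GI50.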 The source made the active and inactive calls. Rule as the data show it: active = GI50 up to about 1.1 µM and inactive = higher.

Legend:
Assay in all cases: inhibition of tumour cell growth, NCI panel, 48 h
EKVX = system: EKVX
SNB-75 = system: SNB-75
HL-60 = system: HL-60
A498 = system: A498
HT-29 = system: HT-29
M14 = system: M14
SN12C = system: SN12C
PC-3 = system: PC-3
HCT-15 = system: HCT-15
NCI-H522 = system: NCI-H522
SK-MEL-28 = system: SK-MEL-28
ACHN = system: ACHN
Malme-3M = system: Malme-3M
TK-10 = system: TK-10
OVCAR-5 = system: OVCAR-5
SF-268 = system: SF-268
CAKI-1 = system: CAKI-1
A549 = system: A549
MOLT-4 = system: MOLT-4
NCI-H226 = system: NCI-H226

SMILES: CCOC(=O)NC(NNc1ccc([N+](=O)[O-])cc1[N+](=O)[O-])(C(F)(F)F)C(F)(F)F
- GI50 (EKVX): 41.8 µM (inactive)
- GI50 (SNB-75): 45.7 µM (inactive)
- GI50 (HL-60): 14.4 µM (inactive)
- GI50 (A498): 19.7 µM (inactive)
- GI50 (HT-29): 32.3 µM (inactive)
- GI50 (M14): 65.2 µM (inactive)
- GI50 (SN12C): 27.7 µM (inactive)
- GI50 (PC-3): 24.7 µM (inactive)
- GI50 (HCT-15): 27.9 µM
- GI50 (NCI-H522): 30.5 µM (inactive)
- GI50 (SK-MEL-28): 52.4 µM (inactive)
- GI50 (ACHN): 43.3 µM (inactive)
- GI50 (Malme-3M): 53.3 µM (inactive)
- GI50 (TK-10): 30.7 µM (inactive)
- GI50 (OVCAR-5): 46 µM (inactive)
- GI50 (SF-268): 43.4 µM (inactive)
- GI50 (CAKI-1): 33 µM (inactive)
- GI50 (A549): 47 µM (inactive)
- GI50 (MOLT-4): 28.1 µM (inactive)
- GI50 (NCI-H226): 36 µM (inactive)

SMILES: COC(=O)C(Cc1c[nH]c2ccccc12)NP(=O)(O)OCC1OC(n2ccc(N)nc2=O)C(O)C1O (stereo not given)
- GI50 (EKVX): > 100 µM (inactive)
- GI50 (SNB-75): > 100 µM (inactive)
- GI50 (HL-60): > 100 µM (inactive)
- GI50 (A498): > 100 µM (inactive)
- GI50 (HT-29): > 100 µM (inactive)
- GI50 (M14): > 100 µM (inactive)
- GI50 (SN12C): > 100 µM (inactive)
- GI50 (PC-3): > 100 µM (inactive)
- GI50 (HCT-15): > 100 µM
- GI50 (NCI-H522): > 100 µM (inactive)
- GI50 (SK-MEL-28): > 100 µM (inactive)
- GI50 (ACHN): > 100 µM (inactive)
- GI50 (Malme-3M): > 100 µM (inactive)
- GI50 (TK-10): > 100 µM (inactive)
- GI50 (OVCAR-5): > 100 µM (inactive)
- GI50 (SF-268): > 100 µM (inactive)
- GI50 (CAKI-1): > 100 µM (inactive)
- GI50 (A549): > 100 µM (inactive)
- GI50 (MOLT-4): > 100 µM (inactive)
- GI50 (NCI-H226): > 100 µM (inactive)

SMILES: CCOC(=O)c1ccc(NC2Oc3cc4c(cc3C(c3cc(OC)c(OC)c(OC)c3)C2C)OCO4)cc1 (stereo not given)
- GI50 (EKVX): 4.24 µM (inactive)
- GI50 (SNB-75): 0.304 µM (active)
- GI50 (HL-60): 0.209 µM (active)
- GI50 (A498): 0.566 µM (active)
- GI50 (HT-29): 0.31 µM (active)
- GI50 (M14): 0.522 µM (active)
- GI50 (SN12C): 1.35 µM (inactive)
- GI50 (PC-3): 0.376 µM (active)
- GI50 (HCT-15): 0.506 µM
- GI50 (NCI-H522): 0.416 µM (active)
- GI50 (SK-MEL-28): 32.4 µM (inactive)
- GI50 (ACHN): 0.769 µM (active)
- GI50 (Malme-3M): 0.216 µM (active)
- GI50 (TK-10): 15.6 µM (inactive)
- GI50 (OVCAR-5): 3.94 µM (inactive)
- GI50 (SF-268): 0.675 µM (active)
- GI50 (CAKI-1): 0.325 µM (active)
- GI50 (A549): 0.847 µM (active)
- GI50 (MOLT-4): 0.41 µM (active)
- GI50 (NCI-H226): 1.51 µM (inactive)

SMILES: CN(N)/N=N/c1[nH]cnc1C(N)=O
- GI50 (EKVX): 36.1 µM (inactive)
- GI50 (SNB-75): 4.66 µM (inactive)
- GI50 (HL-60): 0.531 µM (active)
- GI50 (A498): 39.1 µM (inactive)
- GI50 (HT-29): 99.8 µM (inactive)
- GI50 (M14): 3.01 µM (inactive)
- GI50 (SN12C): 4.82 µM (inactive)
- GI50 (PC-3): 15.3 µM (inactive)
- GI50 (HCT-15): 22.8 µM
- GI50 (NCI-H522): 30.5 µM (inactive)
- GI50 (SK-MEL-28): > 100 µM (inactive)
- GI50 (ACHN): 22.3 µM (inactive)
- GI50 (Malme-3M): 4.55 µM (inactive)
- GI50 (TK-10): 7.67 µM (inactive)
- GI50 (OVCAR-5): > 89.7 µM (inactive)
- GI50 (SF-268): 5.52 µM (inactive)
- GI50 (CAKI-1): 4.24 µM (inactive)
- GI50 (A549): > 100 µM (inactive)
- GI50 (MOLT-4): 1.23 µM (inactive)
- GI50 (NCI-H226): 23.4 µM (inactive)

SMILES: CC(=O)Nn1c(Cc2ccc(Cl)cc2)nn(C)c1=O
- GI50 (EKVX): > 100 µM (inactive)
- GI50 (SNB-75): > 100 µM (inactive)
- GI50 (HL-60): > 100 µM (inactive)
- GI50 (A498): > 100 µM (inactive)
- GI50 (HT-29): > 100 µM (inactive)
- GI50 (M14): > 100 µM (inactive)
- GI50 (SN12C): > 100 µM (inactive)
- GI50 (PC-3): > 100 µM (inactive)
- GI50 (HCT-15): > 100 µM
- GI50 (NCI-H522): > 100 µM (inactive)
- GI50 (SK-MEL-28): > 100 µM (inactive)
- GI50 (ACHN): > 100 µM (inactive)
- GI50 (Malme-3M): > 100 µM (inactive)
- GI50 (TK-10): > 100 µM (inactive)
- GI50 (OVCAR-5): > 100 µM (inactive)
- GI50 (SF-268): > 100 µM (inactive)
- GI50 (CAKI-1): > 100 µM (inactive)
- GI50 (A549): > 100 µM (inactive)
- GI50 (MOLT-4): > 100 µM (inactive)
- GI50 (NCI-H226): > 100 µM (inactive)

SMILES: CCCNC(=S)N/C=C1/C(=O)Oc2ccccc2C1=O
- GI50 (EKVX): > 100 µM (inactive)
- GI50 (SNB-75): 33.2 µM (inactive)
- GI50 (HL-60): 13.6 µM (inactive)
- GI50 (A498): 88.9 µM (inactive)
- GI50 (HT-29): > 100 µM (inactive)
- GI50 (M14): > 100 µM (inactive)
- GI50 (SN12C): > 100 µM (inactive)
- GI50 (PC-3): > 100 µM (inactive)
- GI50 (HCT-15): > 100 µM
- GI50 (NCI-H522): > 100 µM (inactive)
- GI50 (SK-MEL-28): > 100 µM (inactive)
- GI50 (ACHN): 94.8 µM (inactive)
- GI50 (Malme-3M): 63.7 µM (inactive)
- GI50 (TK-10): > 100 µM (inactive)
- GI50 (OVCAR-5): > 100 µM (inactive)
- GI50 (SF-268): > 100 µM (inactive)
- GI50 (CAKI-1): > 100 µM (inactive)
- GI50 (A549): > 100 µM (inactive)
- GI50 (MOLT-4): > 100 µM (inactive)
- GI50 (NCI-H226): > 100 µM (inactive)
